Results as given in patent publication US20240181136A1, “LOW MOLECULAR WEIGHT HYDROGELS COMPRISING THIOGLYCOLIPIDS” (ARIZONA BOARD OF REGENTS ON BEHALF OF THE UNIVERSITY OF …, priority 2021, published 2024).

Experiments:
Assay type in all cases: physicochemical
[1] = Differential scanning calorimetry of hydrogels (gel-sol phase transition); settings: for Phase transition temperature: DSC heating 5° C. per min; for Enthalpy (J/g hydrogel) / Enthalpy (kJ/mol thioglycolipids): gel-sol transition
Protocol: Differential Scanning calorimetry. A Mettler Toledo DSC 823e differential scanning calorimeter, equipped with cooling apparatus, was used for measurement of the phase transition temperature and enthalpy of the gels. Hydrogel samples were first prepared using the fabrication method described above. Then, they were heated to 75° C. (or 85° C. for LacSC12) until they were in the solution state and then pipetted into aluminum, 40 μL DSC pans and capped with lids. The amount of hydrogel in each aluminum pan was controlled to about 6-8 mg. The pans were maintained at 85° C. for 1 min to ensure the samples were in the solution state. Then, they were cooled to 5° C. and maintained at this temperature for 20 min to ensure the formation of hydrogels. […], the samples were heated from 5° C. to 85° C. at a heating rate at 5° C. per min.
Thermal Properties by DSC. Differential scanning calorimetry (DSC) was used to determine the phase transition temperature as well as to explore the possible existence of other lyotropic phases. DSC involves monitoring the enthalpy change during a phase transition, which can be used as a measure of hydrogel stability. The results (Table 2) indicated an endothermic transition between 30° C. and 80° C. for all thioglycolipid hydrogels studied, and these transitions matched those observed visually in bulk solutions. Overall, hydrogels with longer carbon chains had higher thermostability (i.e., higher phase transition temperature). In addition, the LacSCx (x=10,12) hydrogels had higher thermostability than the CelSCx (x=10,12) hydrogels, despite similar phase transition enthalpies. […] However, the LacSC12 and CelSC12 hydrogels required twice the enthalpy compared to the other three.

[2] = Visual assessment of thioglycolipid aggregation and hydrogel formation; design: key to Visual assessment of aggregation and gelation: G = gel; F = fibrous aggregation; C = clear solution; O = cloudy solution; settings: for Hydrogelation on quenching: quenched at temperatures <20° C.
Protocol: Preparation of Thioglycolipid Solutions and Hydrogel Fabrication. Aqueous solutions of thioglycolipids were prepared by weighing 2-3 mg of thioglycolipids and adding an appropriate volume of water to make solution samples at desired concentrations in vials. The vials were capped, sealed with Parafilm, and heated to 75° C. (or 85° C. for LacSC12) until the thioglycolipids were completely dissolved, which typically required about 1 min. The samples were then allowed to cool to ambient temperature. Above some minimal concentration, the solution forms hydrogels upon cooling (FIG. 1). While hydrogelation happens in under 1 min, the gels were allowed to equilibrate at room temperature for 15 min before any analysis. To make metastable thiocellobiosides gels, the samples were quenched at −4° C. after dissolution at 75° C. Although the metastable hydrogels also formed in under 1 min, the gels were allowed to equilibrate at −4° C. for 15 min before analysis.
Visual Assessment of Thioglycolipid Hydrogel Formation. A wide range of thioglycolipid solutions were evaluated to establish concentration conditions (wt %) under which hydrogelation occurs and to assess the formation of other phases. For LacSC8 and LacSC12 solutions at concentrations <0.5 wt %, the solutions were either clear (C) or contain large aggregates (O) (i.e., cloudy). These solutions formed partial hydrogels surrounded by clear solution between 0.5 but <1 wt %, and were completely gelled at concentrations of 1 wt % and greater. Solutions of LacSC10 at <2 wt % formed partial hydrogels surrounded by clear liquid but were completely gelled at or above 2 wt %. […] CelSC10 and CelSC12 solutions formed settled fibrous aggregates in clear solution after equilibrating at ambient temperature overnight. […] If retained at 5° C. , the CelSC10 and CelSC12 gels were stable for at least 6 months. […] Powder x-ray diffraction confirmed that these fibrous aggregates were crystalline. Overall, the thioglycolipid concentration at which hydrogelation can be observed can be as low as 0.05 wt %, depending on thioglycolipid system, compared to the typical concentration for hydrogelation of at least 1 wt % commonly reported in the literature, although 0.25-2 wt % is the concentration range wherein these thioglycolipid solutions became fully hydrogelled. The existence of metastable hydrogels and the ability to tune the transformation of hydrogels into crystals may allow their potential use as smart materials for different applications.

[3] = Small amplitude oscillatory shear rheology of hydrogels (strain sweep, frequency sweep, thixotropy); settings: LacSC10 2 wt %, LacSC12 1 wt %
Protocol: Rheometry. The viscoelastic mechanical properties of the hydrogels were characterized using small amplitude oscillatory shear rheology on a Discovery Hybrid Rheometer 2 (TA Instruments, USA) with a sandblasted 20 mm cone-and-plate geometry at a 1° angle and a sandblasted stage. Inertia, friction, and rotational mapping calibrations were performed prior to each experiment. A Peltier temperature-controlled stage was maintained at 4° C., 10° C., 25° C., or 37° C. for rheology testing. Hydrogels were heated in a water bath above their transition temperature for 5 min, then transferred to the stage before the geometry was lowered quickly (1-3 sec) to the testing gap height of 50 μm. Excess gel was trimmed from the edges of the assembly. To control evaporation, the assembly was encased in a solvent trap with a water seal, and a mineral oil barrier was placed around the edges of the trap. Hydrogels were allowed to form and relax for 1 hour prior to experimentation. Strain sweeps were performed from 0.01% to 1000% shear strain at a constant 10 rad/s angular frequency. G′ (storage modulus) and G″ (loss modulus) were determined by averaging data within the linear viscoelastic region of the strain sweep. Frequency sweeps were performed from 0.01 rad/s to 100 rad/s at a constant 0.01% shear strain. Thixotropy experiments were conducted by cycling the shear strain between 0.01% and 100%. […]

[4] = Stability of hydrogel disks in aqueous media of various pH
Description: Stability of some of the representative hydrogels of the invention in various pH aqueous media was investigated.

[5] = thioglycolipid concentration 0.05 wt %, room temperature
[6] = thioglycolipid concentration 0.1 wt %, room temperature
[7] = thioglycolipid concentration 0.25 wt %, room temperature
[8] = thioglycolipid concentration 0.5 wt %, room temperature
[9] = thioglycolipid concentration 0.75 wt %, room temperature
[10] = thioglycolipid concentration 1 wt %, room temperature
[11] = thioglycolipid concentration 2 wt %, room temperature
[12] = thioglycolipid concentration 5 wt %, room temperature
[13] = thioglycolipid concentration 10 wt %, room temperature

| SMILES | Phase transition temperature ([1]; 1 wt % hydrogel) | Enthalpy (J/g hydrogel) ([1]; 1 wt % hydrogel) | Enthalpy (kJ/mol thioglycolipids) ([1]; 1 wt % hydrogel) | Hydrogelation on quenching [2] | Visual assessment of aggregation and gelation [2, 5] | Visual assessment of aggregation and gelation [2, 6] | Visual assessment of aggregation and gelation [2, 7] | Visual assessment of aggregation and gelation [2, 8] | Visual assessment of aggregation and gelation [2, 9] | Visual assessment of aggregation and gelation [2, 10] | Visual assessment of aggregation and gelation [2, 11] | Visual assessment of aggregation and gelation [2, 12] | Visual assessment of aggregation and gelation [2, 13] | Gel properties at 37° C. [3] | other results |
| --- | --- | --- | --- | --- | --- | --- | --- | --- | --- | --- | --- | --- | --- | --- | --- |
| CCCCCCCCCCCCS[C@@H]1O[C@H](CO)[C@@H](O[C@@H]2O[C@H](CO)[C@@H](O)[C@H](O)[C@H]2O)[C@H](O)[C@H]1O [CelSC12] | 42-54 °C | 0.42 ± 0.06 J/g hydrogel | 22.3 ± 3.3 kJ/mol thioglycolipids | completely hydrogelled | F | F | G or F | G or F | G or F | G or F | G or F | G or F | G or F |  |  |
| CCCCCCCCCCCCS[C@@H]1O[C@H](CO)[C@@H](O[C@@H]2O[C@H](CO)[C@H](O)[C@H](O)[C@H]2O)[C@H](O)[C@H]1O [LacSC12] | 63-79 °C | 0.39 ± 0.10 J/g hydrogel | 20.7 ± 5.3 kJ/mol thioglycolipids |  | O | O | O | G + C | G + C | G | G | G | G | retained their gel properties |  |
| CCCCCCCCS[C@@H]1O[C@H](CO)[C@@H](O[C@@H]2O[C@H](CO)[C@@H](O)[C@H](O)[C@H]2O)[C@H](O)[C@H]1O [CelSC8] |  |  |  |  | C | C | C | C | C | C | C | C | C |  | Visual state of solutions over all concentrations studied ([2]; room temperature, 0.05-10 wt %): remained as clear solutions at all concentrations studied |
| CCCCCCCCCCS[C@@H]1O[C@H](CO)[C@@H](O[C@@H]2O[C@H](CO)[C@@H](O)[C@H](O)[C@H]2O)[C@H](O)[C@H]1O [CelSC10] | 31-37 °C | 0.18 ± 0.01 J/g hydrogel | 9.0 ± 0.6 kJ/mol thioglycolipids | completely hydrogelled | F | F | G or F | G or F | G or F | G or F | G or F | G or F | G or F |  |  |
| CCCCCCCCCCS[C@@H]1O[C@H](CO)[C@@H](O[C@@H]2O[C@H](CO)[C@H](O)[C@H](O)[C@H]2O)[C@H](O)[C@H]1O [LacSC10] |  |  |  |  | G + C | G + C | G + C | G + C | G + C | G + C | G | G | G | retained their gel properties | Hydrogel disk size or volume in aqueous media ([4]; pH 2, 7.4 and 10, days 1-21): No observable decrease in disk size or volume; Time hydrogel disks are stable in aqueous media ([4]; pH 2, 7.4 and 10, maximum time investigated): stable in these aqueous media for over two months; Phase transition temperature ([1]; 2 wt % hydrogel): 57-64 °C; Enthalpy (J/g hydrogel) ([1]; 2 wt % hydrogel): 0.35 ± 0.02 J/g hydrogel; Enthalpy (kJ/mol thioglycolipids) ([1]; 2 wt % hydrogel): 8.8 ± 0.5 kJ/mol thioglycolipids; Concentration at which solutions were completely gelled ([2]; room temperature): ≥ 2 wt % |
| CCCCCCCCS[C@@H]1O[C@H](CO)[C@@H](O[C@@H]2O[C@H](CO)[C@H](O)[C@H](O)[C@H]2O)[C@H](O)[C@H]1O [LacSC8] | 38-46 °C | 0.20 ± 0.03 J/g hydrogel | 9.2 ± 1.4 kJ/mol thioglycolipids |  | C | C | C | G + C | G + C | G | G | G | G |  |  |
